Test results from ChEMBL document CHEMBL3879899, “Gastrin releasing peptide compounds” (2011).
pIC50: −log10 of the molar value. Activity calls are given as the source filed them. The rule behind the calls is not given here. Where a SMILES comes first, the peptide text is derived from it. The star is where a group is joined. Me2Gly = CN(C)CC(=O)*; Acm = CC(=O)NC*

Molecular target: T1, Gastrin-releasing peptide receptor (Homo sapiens, UniProt P30550)
Assay: Displacement of [125I]-BBN from GRPR in human PC3 cells after 1 hr by compuGamma counting or microplate scintillation counting method
Format: cell-based, PC-3
Conditions: not given
Target sequence in this assay (P30550 whole entry): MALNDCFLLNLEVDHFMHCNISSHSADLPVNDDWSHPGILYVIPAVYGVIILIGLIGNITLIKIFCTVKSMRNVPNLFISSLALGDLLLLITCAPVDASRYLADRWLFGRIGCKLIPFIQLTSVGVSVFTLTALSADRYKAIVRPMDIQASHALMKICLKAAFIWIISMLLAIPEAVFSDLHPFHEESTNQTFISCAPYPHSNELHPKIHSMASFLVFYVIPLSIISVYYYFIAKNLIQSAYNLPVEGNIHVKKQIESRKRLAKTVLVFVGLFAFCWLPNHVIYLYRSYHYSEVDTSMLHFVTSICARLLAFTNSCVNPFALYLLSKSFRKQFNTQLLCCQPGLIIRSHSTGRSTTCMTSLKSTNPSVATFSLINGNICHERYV

pIC50 | Structure (SMILES)
8.70 | CSCC[C@H](NC(=O)[C@H](CC(C)C)NC(=O)[C@H](Cc1cnc[nH]1)NC(=O)CNC(=O)[C@@H](NC(=O)[C@H](C)NC(=O)[C@H](Cc1c[nH]c2ccccc12)NC(=O)[C@H](CCC(N)=O)NC(=O)[C@H](CCCCN)NC(=O)[C@H](CO)NC(=O)CNC(=O)[C@H](CSCNC(C)=O)NC(=O)[C@H](CO)NC(=O)CN(C)C)C(C)C)C(N)=O (Me2Gly-SC(Acm)GSKQWAVGHLM-NH2)
8.66 | CSCC[C@H](NC(=O)[C@H](CC(C)C)NC(=O)[C@H](Cc1cnc[nH]1)NC(=O)CNC(=O)[C@@H](NC(=O)[C@H](C)NC(=O)[C@H](Cc1c[nH]c2ccccc12)NC(=O)[C@H](CCC(N)=O)NC(=O)[C@H](CC(N)=O)NC(=O)CNC(=O)[C@H](Cc1ccc(O)cc1)NC(=O)[C@H](CCCNC(=N)N)NC(=O)[C@H](CCC(N)=O)NC(=O)[C@H](CCC(=O)O)NC(=O)[C@H]1CCCN1)C(C)C)C(N)=O
< 7.30 | CSCC[C@H](NC(=O)[C@H](CC(C)C)NC(=O)[C@H](Cc1cnc[nH]1)NC(=O)CNC(=O)[C@@H](NC(=O)[C@H](C)NC(=O)[C@H](Cc1c[nH]c2ccccc12)NC(=O)[C@H](CCC(N)=O)NC(=O)[C@@H]1CSC2CC[C@H](NC(=O)CN3CCN(CC(=O)O)CCN(CC(=O)O)CCN(CC(=O)O)CC3)C(=O)N21)C(C)C)C(N)=O (stereo partly specified)
< 7.30 | CSCC[C@H](NC(=O)[C@H](CC(C)C)NC(=O)[C@H](Cc1cnc[nH]1)NC(=O)CNC(=O)[C@@H](NC(=O)[C@H](C)NC(=O)[C@H](Cc1c[nH]c2ccccc12)NC(=O)[C@H](CCC(N)=O)NC(=O)C[C@@H]1NC(=O)C2C[C@H](NC(=O)CN3CCN(CC(=O)O)CCN(CC(=O)O)CCN(CC(=O)O)CC3)CN2C1=O)C(C)C)C(N)=O (stereo partly specified)
< 7.30 | CSCC[C@H](NC(=O)[C@H](CC(C)C)NC(=O)[C@H](Cc1cnc[nH]1)NC(=O)CNC(=O)[C@@H](NC(=O)[C@H](C)NC(=O)[C@H](Cc1c[nH]c2ccccc12)NC(=O)[C@H](CCC(N)=O)NC(=O)CN1CCN(C(=O)CN2CCN(CC(=O)O)CCN(CC(=O)O)CCN(CC(=O)O)CC2)CC1)C(C)C)C(N)=O
< 7.30 | CSCC[C@H](NC(=O)[C@H](CC(C)C)NC(=O)[C@H](Cc1cnc[nH]1)NC(=O)CNC(=O)[C@@H](NC(=O)[C@H](C)NC(=O)[C@H](Cc1c[nH]c2ccccc12)NC(=O)[C@H](CCC(N)=O)NC(=O)[C@H](CCCNC(=N)N)NC(=O)[C@H](CCCCNC(=O)COCCOCCOCC(=O)N[C@H]1CC[C@]2(C)[C@H]3C[C@H](O)[C@]4(C)[C@@H]([C@H](C)CCC(=O)O)CC[C@H]4[C@@H]3CC[C@]2(C)C1)NC(=O)CNC(=O)CN1CCN(CC(=O)O)CCN(CC(=O)O)CCN(CC(=O)O)CC1)C(C)C)C(N)=O

Second part, the molecule before the results:

Structure (SMILES) | pIC50
CSCC[C@H](NC(=O)[C@H](CC(C)C)NC(=O)[C@H](Cc1cnc[nH]1)NC(=O)CNC(=O)[C@@H](NC(=O)[C@H](C)NC(=O)[C@@H](N)Cc1c[nH]c2ccccc12)C(C)C)C(N)=O | < 6.10
CSCC[C@H](NC(=O)[C@H](CC(C)C)NC(=O)[C@H](Cc1cnc[nH]1)NC(=O)CNC(=O)[C@@H](NC(=O)[C@H](C)NC(=O)[C@H](Cc1c[nH]c2ccccc12)NC(=O)[C@H](CCC(N)=O)NC(=O)CN1CN(c2ccccc2)C2(CCN(C(=O)CN3CCN(CC(=O)O)CCN(CC(=O)O)CCN(CC(=O)O)CC3)CC2)C1=O)C(C)C)C(N)=O | < 7.30
CSCC[C@H](NC(=O)[C@H](CC(C)C)NC(=O)[C@H](Cc1cnc[nH]1)NC(=O)CNC(=O)[C@@H](NC(=O)[C@H](C)NC(=O)[C@H](Cc1c[nH]c2ccccc12)NC(=O)[C@H](CCC(N)=O)NC(=O)[C@H](CCCNC(=N)N)NC(=O)[C@H](CCCCNC(=O)CNC(=O)CN1CCN(CC(=O)O)CCN(CC(=O)O)CCN(CC(=O)O)CC1)NC(=O)COCCOCCOCC(=O)N[C@H]1CC[C@]2(C)[C@H]3C[C@H](O)[C@]4(C)[C@@H]([C@H](C)CCC(=O)O)CC[C@H]4[C@@H]3CC[C@]2(C)C1)C(C)C)C(N)=O | < 7.30
CSCC[C@H](NC(=O)[C@H](CC(C)C)NC(=O)[C@H](Cc1cnc[nH]1)NC(=O)CNC(=O)[C@@H](NC(=O)[C@H](C)NC(=O)[C@H](Cc1c[nH]c2ccccc12)NC(=O)[C@H](CCC(N)=O)NC(=O)Cn1cnc2ccc(N3CCN(C(=O)CN4CCN(CC(=O)O)CCN(CC(=O)O)CCN(CC(=O)O)CC4)CC3)cc2c1=O)C(C)C)C(N)=O | < 7.30
CSCC[C@H](NC(=O)[C@H](CC(C)C)NC(=O)[C@H](Cc1cnc[nH]1)NC(=O)CNC(=O)[C@@H](NC(=O)[C@H](C)NC(=O)[C@H](Cc1c[nH]c2ccccc12)NC(=O)[C@H](CCC(N)=O)NC(=O)[C@@H]1Cc2cccc3c2N1C(=O)[C@@H](NC(=O)CN1CCN(CC(=O)O)CCN(CC(=O)O)CCN(CC(=O)O)CC1)CC3)C(C)C)C(N)=O | < 7.30

Same assay, conditions: pc-3

Structure (SMILES) | pIC50
CSCC[C@H](NC(=O)[C@H](CC(C)C)NC(=O)[C@H](Cc1c[nH]cn1)NC(=O)CNC(=O)[C@@H](NC(=O)[C@H](C)NC(=O)[C@H](Cc1c[nH]c2ccccc12)NC(=O)[C@H](CCC(N)=O)NC(=O)CN1CCCC[C@H](NC(=O)CN2CCN(CC(=O)O)CCN(CC(=O)O)CCN(CC(=O)O)CC2)C1=O)C(C)C)C(N)=O | 7.30

System: not listed separately
Assay: Drug efflux in human PC3 cells after 2 hrs by gamma counting method
Format: ADME, cell-based
Conditions: pc-3, 2 h

Structure (SMILES) | Drug transport
CSCC[C@H](NC(=O)[C@H](CC(C)C)NC(=O)[C@H](Cc1cnc[nH]1)NC(=O)CNC(=O)[C@@H](NC(=O)[C@H](C)NC(=O)[C@H](Cc1c[nH]c2ccccc12)NC(=O)[C@H](CCC(N)=O)NC(=O)[C@H](CC(N)=O)NC(=O)CNC(=O)[C@H](CC(C)C)NC(=O)[C@H](CCCN=C(N)N)NC(=O)[C@H](CCC(N)=O)NC(=O)[C@@H]1CCC(=O)N1)C(C)C)C(N)=O [BOMBESIN] | 35%

Molecular target: T2, Neuromedin-B receptor (Rattus norvegicus, UniProt P24053)
T2 sequence (P24053 whole entry): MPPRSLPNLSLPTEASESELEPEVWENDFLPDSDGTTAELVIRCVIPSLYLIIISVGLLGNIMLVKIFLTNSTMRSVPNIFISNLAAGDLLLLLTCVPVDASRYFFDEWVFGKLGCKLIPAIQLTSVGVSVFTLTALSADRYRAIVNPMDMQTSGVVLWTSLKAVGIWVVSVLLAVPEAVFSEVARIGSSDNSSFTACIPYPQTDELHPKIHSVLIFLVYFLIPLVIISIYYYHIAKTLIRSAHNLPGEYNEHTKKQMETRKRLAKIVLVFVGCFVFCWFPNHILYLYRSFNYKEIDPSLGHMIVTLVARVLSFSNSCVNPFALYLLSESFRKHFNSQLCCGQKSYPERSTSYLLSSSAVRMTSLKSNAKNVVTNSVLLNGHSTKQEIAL
Assay: Displacement of [125I]-NMB from NMB receptor in rat C6 cells
Format: cell-based
Conditions: not given

pIC50 | Structure (SMILES)
< 6.60 | CSCC[C@H](NC(=O)[C@H](CC(C)C)NC(=O)[C@H](Cc1cnc[nH]1)NC(=O)CNC(=O)[C@@H](NC(=O)[C@H](C)NC(=O)[C@H](Cc1c[nH]c2ccccc12)NC(=O)[C@H](CCC(N)=O)NC(=O)CN1CCN(CC(=O)O)CCN(CC(=O)O)CCN(CC(=O)O)CC1)C(C)C)C(N)=O
8.47 | CSCC[C@H](NC(=O)[C@H](CC(C)C)NC(=O)[C@H](Cc1cnc[nH]1)NC(=O)CNC(=O)[C@@H](NC(=O)[C@H](C)NC(=O)[C@H](Cc1c[nH]c2ccccc12)NC(=O)[C@H](CCC(N)=O)NC(=O)[C@H](CC(N)=O)NC(=O)CNC(=O)[C@H](Cc1ccc(O)cc1)NC(=O)[C@H](CCCNC(=N)N)NC(=O)[C@H](CCC(N)=O)NC(=O)[C@H](CCC(=O)O)NC(=O)[C@H]1CCCN1)C(C)C)C(N)=O

Continued, molecule first:

Structure (SMILES) | pIC50
CSCC[C@H](NC(=O)[C@H](CC(C)C)NC(=O)[C@H](Cc1cnc[nH]1)NC(=O)CNC(=O)[C@@H](NC(=O)[C@H](C)NC(=O)[C@@H](N)Cc1c[nH]c2ccccc12)C(C)C)C(N)=O | < 6.10
CSCC[C@H](NC(=O)[C@H](CC(C)C)NC(=O)[C@H](Cc1cnc[nH]1)NC(=O)CNC(=O)[C@@H](NC(=O)[C@H](C)NC(=O)[C@H](Cc1c[nH]c2ccccc12)NC(=O)[C@H](CCC(N)=O)NC(=O)[C@H](CCC(=O)O)NC(=O)[C@H](CCCCN)NC(=O)CNC(=O)[C@H](CSCNC(C)=O)NC(=O)[C@H](CO)NC(=O)CN(C)C)C(C)C)C(N)=O | 7.22
CSCC[C@H](NC(=O)[C@H](CC(C)C)NC(=O)[C@H](Cc1cnc[nH]1)NC(=O)CNC(=O)[C@@H](NC(=O)[C@H](C)NC(=O)[C@H](Cc1c[nH]c2ccccc12)NC(=O)[C@H](CCC(N)=O)NC(=O)[C@H]1CC[C@H](CNC(=O)[C@H]2CC[C@H](CNC(=O)CN3CCN(CC(=O)O)CCN(CC(=O)O)CCN(CC(=O)O)CC3)CC2)CC1)C(C)C)C(N)=O | 9.52
CSCC[C@H](NC(=O)[C@H](Cc1ccccc1)NC(=O)[C@H](Cc1c[nH]cn1)NC(=O)CNC(=O)[C@@H](NC(=O)[C@H](C)NC(=O)[C@H](Cc1c[nH]c2ccccc12)NC(=O)[C@H](CC(C)C)NC(=O)c1ccc(NC(=O)CNC(=O)CN2CCN(CC(=O)O)CCN(CC(=O)O)CCN(CC(=O)O)CC2)cc1)C(C)O)C(N)=O (stereo partly specified) | 9.10 to 10.15

System: not listed separately
Assay: Drug internalization in human PC3 cells after 40 mins by gamma counting method
Format: ADME, cell-based
Conditions: pc-3, 40 min

Structure (SMILES) | Drug uptake
CSCC[C@H](NC(=O)[C@H](CC(C)C)NC(=O)[C@H](Cc1cnc[nH]1)NC(=O)CNC(=O)[C@@H](NC(=O)[C@H](C)NC(=O)[C@H](Cc1c[nH]c2ccccc12)NC(=O)[C@H](CCC(N)=O)NC(=O)[C@H](CC(N)=O)NC(=O)CNC(=O)[C@H](CC(C)C)NC(=O)[C@H](CCCN=C(N)N)NC(=O)[C@H](CCC(N)=O)NC(=O)[C@@H]1CCC(=O)N1)C(C)C)C(N)=O [BOMBESIN] | 59%

Molecular target: T1, Gastrin-releasing peptide receptor
Assay: Binding affinity to GRP receptor in human colon smooth muscle after 1 hr by autoradiography
Conditions: not given
Target sequence in this assay (P30550 whole entry, looked up): as the sequence (P30550 whole entry) above

Structure (SMILES) | Activity
CCCCC(NC(=O)[C@H](Cc1ccccc1)NC(=O)[C@H](Cc1cnc[nH]1)NC(=O)CCNC(=O)[C@@H](NC(=O)[C@H](C)NC(=O)[C@H](Cc1c[nH]c2ccccc12)NC(=O)[C@H](CCC(N)=O)NC(=O)C(N)Cc1ccc(O)cc1)C(C)C)C(N)=O (stereo in doubt) | Active
